Article PMC12806164, “Epithelial Heparan Sulfate Promotes Staphylococcus aureus Corneal Infection by Inhibiting Cathelicidins” (Proteoglycan research, 2025)
Where two headings read alike, the source gives them in different places.

Tests used:
[1] = tested on: SMAP-29; test: Inhibition by glycosaminoglycans of S. aureus killing by SMAP-29; assay type: cell-based, sheep; settings: 5 μg/mL glycosaminoglycan, 0.5 μM SMAP-29, ~500 cfu USA300, phosphate buffer pH 7.4, 2 h at 37°C, n = 6
Experimental: (§1) Samples were plated onto TSA plates, and viable bacteria (cfu) were counted the following day. Data are shown as % bacterial killing, where killing activity in the presence of cathelicidin only represents 100% (n = 6, *p < 0.05, ****p < 0.0001, one-way ANOVA, multiple comparisons).
(§2) (A) Schematics of HS/HP structure. […] (F) BaclightGreen-labeled S. aureus (~400 cfu) was incubated with 0.5 μM CRAMP without or with 5 μg/mL HP, NDS-HP, 2ODS-HP, 6ODS-HP, H, NS-H, or NS2OS-H for 30 min at room temperature. Bacteria were washed, incubated with 10 μg/mL propidium iodide for 15 min at 4°C, and live (green) and dead (red) bacteria were visualized by fluorescence microscopy.
(§3) Late log phase S. aureus USA300 was washed with phosphate buffer (8.2 mM Na2HPO4, 1.8 mM KH2PO4, pH 7.4) and approximately 500 cfu were incubated with cathelicidins with or without excess GAGs for 2 h at 37°C as indicated. Viable bacteria were enumerated by plating onto TSA plates and counting colonies the following day. Results are shown as % bacterial killing, where 100% killing represents data derived from the group of bacteria incubated with cathelicidins only.

[2] = tested on: CRAMP; test: Alexa 647-CRAMP binding to Affi-Gel HP beads, competition by HP compounds (flow cytometry); set-up: species or system mouse; settings: 20 μg/mL competitor, 0.5 μM Alexa 647-conjugated CRAMP, 1 h at room temperature, n = 4
Experimental: FIGURE 4 | 2-O-sulfated heparan compounds directly bind to CRAMP with high affinity. Alexa 647-conjugated CRAMP (0.5 μM) was incubated with Affi-Gel HP beads without or with 20 μg/mL of HP, NDS-HP, 2ODS-HP, or 6ODS-HP for 1 h at room temperature. CRAMP fluorescence associated with Affi-Gel HP beads was analyzed by flow cytometry. Results are shown as (A) % CRAMP binding and (B) mean fluorescence intensity (MFI) of CRAMP binding (n = 4, ***p < 0.001, ****p < 0.0001). ITC analyses for CRAMP binding to HP were performed at 25°C using a MicroCal iTC 200 titration calorimetry. The fitted heat curves of titrating CRAMP binding to (C) HP and (D) 2ODS-HP are shown.
Affi-Gel HP beads were washed and resuspended in PBS. Affi-Gel HP beads (20 μL) were incubated with 0.5 μM Alexa 647-labeled CRAMP without or with 20 μg/mL HP, chemically desulfated HP, or chemoenzymatically sulfated H for 1 h at room temperature. Affi-Gel HP beads were washed with PBS, and the Alexa 647-labeled CRAMP bound to them was assessed by flow cytometry.

[3] = tested on: CRAMP; test: Inhibition by glycosaminoglycans of S. aureus killing by CRAMP; assay type: cell-based, mouse; settings: 0.5 μM CRAMP; for Inhibition of S. aureus killing by CRAMP: 5 μg/mL glycosaminoglycan, ~500 cfu USA300, phosphate buffer pH 7.4, 2 h at 37°C, n = 6
Experimental: as §1, §2, §3
(§4) Figure S1. A) CRAMP expression was measured in uninfected Wt corneas or Wt corneas isolated at 4 h post-S. aureus USA300 infection. Briefly, eyes were enucleated, corneas were dissected, and isolated corneas were incubated with 10 mg/ml dispase II overnight at 4°C to peel off the corneal epithelium. Total RNA was purified from the corneal epithelium, and 1 ng of total RNA was analyzed by qRT-PCR for CRAMP or β-actin expression (n = 3, **p < 0.01). […] Bacterial killing was measured by plating serial dilutions onto TSA plates and counting colonies the following day. Results are shown as % bacterial survival (n = 4). Figure S2. […] Bacterial killing (%) was enumerated by plating serial dilutions onto TSA plates and counting colonies the following day (n = 5). B) Effects of pre-incubating S. aureus with glycosaminoglycans on bacterial killing by cathelicidins were examined by incubating 500 cfu of USA300 without or with 5 μg/ml HS, HP, DS, or CS for 30 min at 37°C. Bacteria were washed three times with buffer, incubated with 0.5 μM CRAMP for 2 h at 37°C, and % bacterial killing was determined by plating serial dilutions of samples (n = 4). Figure S3. S. aureus USA300 stained with BaclightGreen was incubated with 0.5 μM CRAMP in the absence or presence of 5 μg/ml HP, NDS-HP, 2ODS-HP, 6ODS-HP, H, NS-H, or NS2OS-H for 30 min at room temperature. Bacteria were washed and incubated with 10 μg/ml propidium iodide for 15 min on ice. Images were captured with a fluorescence microscope (Zeiss Axiovert 40 CFL). Quantification of % dead bacteria (out of total bacteria in field) is shown at the bottom. Figure S4. Alexa 647-conjugated CRAMP (0.5 μM) was incubated with fixed S. aureus USA300 without or with 5 μg/ml of the indicated glycosaminoglycans and chemically-desulfated HP compounds for 1 h at room temperature. S. aureus-associated CRAMP fluorescence was analyzed by flow cytometry. Representative FACS density plots are shown where heparan compounds containing 2-O-sulfated motifs decreased Alexa CRAMP binding by over 79% compared to the control (No GAG), except for NDS-HP where the reduction was approximately 65%. Fig. S5. Relative mRNA levels of A) Ndst1 and B) Sdc1 in the corneal epithelium of Hs2st^fl/fl, Krt12Cre, and Hs2st^fl/fl/Krt12Cre mice (n = 3).

[4] = tested on: CAP-18; test: Inhibition by glycosaminoglycans of S. aureus killing by CAP-18; assay type: cell-based, rabbit; settings: 5 μg/mL glycosaminoglycan, 0.5 μM CAP-18, ~500 cfu USA300, phosphate buffer pH 7.4, 2 h at 37°C, n = 6
Experimental: as §1, §2, §3

[5] = tested on: LL-37; test: Inhibition by glycosaminoglycans of S. aureus killing by LL-37; assay type: cell-based, human; settings: 5 μg/mL glycosaminoglycan, 1 μM LL-37, ~500 cfu USA300, phosphate buffer pH 7.4, 2 h at 37°C, n = 6
Experimental: as §1, §2, §3

[6] = tested on: S. aureus USA300; settings: 500 cfu S. aureus USA300, 2 h at 37°C, cfu on TSA plates, n = 4
Experimental: Bacterial killing was measured by plating serial dilutions onto TSA plates and counting colonies the following day. Results are shown as % bacterial survival (n = 4). […] Bacterial killing (%) was enumerated by plating serial dilutions onto TSA plates and counting colonies the following day (n = 5). B) Effects of pre-incubating S. aureus with glycosaminoglycans on bacterial killing by cathelicidins were examined by incubating 500 cfu of USA300 without or with 5 μg/ml HS, HP, DS, or CS for 30 min at 37°C. Bacteria were washed three times with buffer, incubated with 0.5 μM CRAMP for 2 h at 37°C, and % bacterial killing was determined by plating serial dilutions of samples (n = 4). […] Images were captured with a fluorescence microscope (Zeiss Axiovert 40 CFL). Quantification of % dead bacteria (out of total bacteria in field) is shown at the bottom. […] S. aureus-associated CRAMP fluorescence was analyzed by flow cytometry.

[7] = ref 44 (LL-37), ref 39 (CAP-18), ref 42 (SMAP-29); cited from earlier work
Text: Next, we examined the dose response to cathelicidins from different species, which can have relatively large differences in primary sequence.

[8] = tested on: CRAMP; test: Alexa 647-CRAMP binding to fixed S. aureus, inhibition by glycosaminoglycans (flow cytometry); set-up: species or system mouse; settings: 0.5 μM Alexa 647-conjugated CRAMP; for Reduction of proportion of CRAMP-bound bacteria (Alexa CRAMP binding, FACS density plots) compared to No GAG: 5 μg/ml glycosaminoglycan, fixed S. aureus USA300, 1 h at room temperature, representative plots; for Decrease of MFI of Alexa-labeled CRAMP binding to S. aureus compared to control: 5 μg/mL glycosaminoglycan, 2% paraformaldehyde-fixed S. aureus USA300, 1 h at room temperature, n = 3
Experimental: Alexa 647-conjugated CRAMP (0.5 μM) was incubated with 2% paraformaldehyde-fixed Staphylococcus aureus USA300 without or with 5 μg/mL HP, HS, CS, DS, NDS-HP, 6ODS-HP, or 2ODS-HP for 1 h at room temperature. S. aureus-associated CRAMP fluorescence was analyzed by flow cytometry. Results are shown as % Alexa CRAMP binding (n = 3, ****p < 0.0001).
Alexa 647 fluorophore was conjugated to CRAMP using the Lightning-Link Rapid FluoProbes647H labeling kit following the manufacturer’s instructions. S. aureus USA300 fixed in 2% paraformaldehyde for 20 min was resuspended in 20 μL of phosphate buffer and incubated with 0.5 μM of Alexa 647-labeled CRAMP for 30 min at room temperature without or with glycosaminoglycans. Unbound Alexa 647-labeled CRAMP was removed by washing with phosphate buffer, and Alexa 647-labeled CRAMP bound to bacteria was assessed by flow cytometry.
as §4

[9] = tested on: S. aureus USA300; test: Pre-incubation of S. aureus with glycosaminoglycans, washing, then killing by cathelicidin; assay type: cell-based, Staphylococcus aureus; settings: 5 μg/ml glycosaminoglycan pre-incubated with 500 cfu USA300 30 min at 37°C, washed three times, then 0.5 μM CRAMP 2 h at 37°C, n = 4
Experimental: Figure S1. A) CRAMP expression was measured in uninfected Wt corneas or Wt corneas isolated at 4 h post-S. aureus USA300 infection. Briefly, eyes were enucleated, corneas were dissected, and isolated corneas were incubated with 10 mg/ml dispase II overnight at 4°C to peel off the corneal epithelium. Total RNA was purified from the corneal epithelium, and 1 ng of total RNA was analyzed by qRT-PCR for CRAMP or β-actin expression (n = 3, **p < 0.01). […] Bacterial killing was measured by plating serial dilutions onto TSA plates and counting colonies the following day. Results are shown as % bacterial survival (n = 4). Figure S2. […] Bacterial killing (%) was enumerated by plating serial dilutions onto TSA plates and counting colonies the following day (n = 5). B) Effects of pre-incubating S. aureus with glycosaminoglycans on bacterial killing by cathelicidins were examined by incubating 500 cfu of USA300 without or with 5 μg/ml HS, HP, DS, or CS for 30 min at 37°C. Bacteria were washed three times with buffer, incubated with 0.5 μM CRAMP for 2 h at 37°C, and % bacterial killing was determined by plating serial dilutions of samples (n = 4). Figure S3. […] Images were captured with a fluorescence microscope (Zeiss Axiovert 40 CFL). Quantification of % dead bacteria (out of total bacteria in field) is shown at the bottom. […] S. aureus-associated CRAMP fluorescence was analyzed by flow cytometry. […]

Molecule | Inhibition of S. aureus killing by SMAP-29 [1] | Inhibition of CRAMP binding to HP beads [2] | Inhibition of S. aureus killing by CRAMP [3] | Inhibition of S. aureus killing by CAP-18 [4] | Inhibition of S. aureus killing by LL-37 [5] | S. aureus killed ([6]; 1 μM peptide) | pI [7] | S. aureus killed ([6]; 0.5 μM peptide) | Reduction of proportion of CRAMP-bound bacteria (Alexa CRAMP binding, FACS density plots) compared to No GAG [8] | Decrease of MFI of Alexa-labeled CRAMP binding to S. aureus compared to control [8] | Inhibition of bacterial killing by CRAMP, titration study ([3]; 5 μg/mL (~0.5 μM) HS, 500 cfu USA300, 2 h at 37°C, n = 5) | Inhibition of bacterial killing by cathelicidins after pre-incubation with bacteria and washing away [9]
6-O-desulfated HP [6ODS-HP] | did not alter the ability of HP to significantly inhibit | over 75% | did not alter the ability of HP to significantly inhibit | did not alter the ability of HP to significantly inhibit | did not alter the ability of HP to significantly inhibit |  |  |  |  |  |  | 
CC[C@H](C)[C@H](NC(=O)[C@H](CCCCN)NC(=O)[C@H](CCC(=O)O)NC(=O)[C@H](CCCCN)NC(=O)[C@H](CO)NC(=O)[C@H](CCCCN)NC(=O)[C@H](CCCNC(=N)N)NC(=O)[C@H](Cc1ccccc1)NC(=O)[C@H](Cc1ccccc1)NC(=O)[C@H](CC(=O)O)NC(=O)CNC(=O)[C@H](CC(C)C)NC(=O)[C@@H](N)CC(C)C)C(=O)NCC(=O)N[C@@H](CCCCN)C(=O)N[C@@H](CCC(=O)O)C(=O)N[C@@H](Cc1ccccc1)C(=O)N[C@@H](CCCCN)C(=O)N[C@@H](CCCNC(=N)N)C(=O)N[C@H](C(=O)N[C@H](C(=O)N[C@@H](CCC(N)=O)C(=O)N[C@@H](CCCNC(=N)N)C(=O)N[C@H](C(=O)N[C@@H](CCCCN)C(=O)N[C@@H](CC(=O)O)C(=O)N[C@@H](Cc1ccccc1)C(=O)N[C@@H](CC(C)C)C(=O)N[C@@H](CCCNC(=N)N)C(=O)N[C@@H](CC(N)=O)C(=O)N[C@@H](CC(C)C)C(=O)N[C@H](C(=O)N1CCC[C@H]1C(=O)N[C@@H](CCCNC(=N)N)C(=O)N[C@H](C(=O)N[C@@H](CCC(=O)O)C(=O)N[C@@H](CO)C(=O)O)[C@@H](C)O)C(C)C)[C@@H](C)CC)C(C)C)[C@@H](C)CC [LL-37] |  |  |  |  |  | Greater than 98% | 10.5 |  |  |  |  | 
CAP-18 |  |  |  |  |  |  | 11.9 | Greater than 98% |  |  |  | 
N-desulfated HP [NDS-HP] | did not alter the ability of HP to significantly inhibit | over 75% | did not alter the ability of HP to significantly inhibit | did not alter the ability of HP to significantly inhibit | did not alter the ability of HP to significantly inhibit |  |  |  | approximately 65% |  |  | 
chondroitin sulfate A [CS] | no significant effect |  | no significant effect | no significant effect | no significant effect |  |  |  | not | no effect |  | 
dermatan sulfate [DS] | did not inhibit |  | did not inhibit | 21% | 27% |  |  |  | not | no effect |  | 
heparan sulfate [HS] | over 70% |  | over 70% | over 70% | over 70% |  |  |  |  |  | significantly inhibited | did not inhibit
heparosan | minimal effect |  | minimal effect | minimal effect | minimal effect |  |  |  |  |  |  | 
